Results as given in ChEMBL document CHEMBL1201862, “PubChem BioAssay data set” (2004).
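Grown in 96-well plates, cells were treated for 48 hours with each compound at five concentrations. Insufficient inhibition: endpoint recorded as highest concentration tested. Abbreviation: GI50, concentration required for 50% inhibition of growth.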 Calls of active or inactive are those of the source. Cut-off read from the data, not from the text of the source: active = GI50 up to about 1.1 µM and inactive = higher. Non-standard residues stand in square brackets, D forms with d. Residues, ends and D or L forms follow the SMILES beside them. *: point of attachment. Phe(4-NO2) = N[CH](Cc1ccc([N+](=O)[O-])cc1)C(=O)O; Boc = CC(C)(C)OC(=O)*

What was measured:
Experiment in all cases: growth of human tumour cells (NCI), 48 h
BT-549 = test system: BT-549
Hs-578T = test system: Hs-578T
MDA-N = test system: MDA-N
T47D = test system: T47D
DMS-273 = test system: DMS-273
KM-20L2 = test system: KM-20L2
M19-MEL = test system: M19-MEL
LXFL 529 = test system: LXFL 529

Cc1cc2nc(N3C(=O)/C(=C/Cc4ccco4)N=C3c3ccccc3)sc2cc1C
GI50 (BT-549): 30.5 µM (inactive) | GI50 (Hs-578T): 39.3 µM (inactive) | GI50 (MDA-N): 9.98 µM (inactive) | GI50 (T47D): 31 µM (inactive)

Cn1c(=O)c2c(nc3sc4nc5ccccc5nc4n32)n(C)c1=O
GI50 (BT-549): > 100 µM (inactive) | GI50 (Hs-578T): > 100 µM (inactive) | GI50 (MDA-N): > 100 µM (inactive) | GI50 (T47D): > 100 µM (inactive)

O=C1/C(=C\c2ccc(Cl)cc2Cl)Sc2scc(-c3ccc(O)c(O)c3)[n+]21
GI50 (BT-549): 17.9 µM (inactive) | GI50 (Hs-578T): 27.2 µM (inactive) | GI50 (MDA-N): 17.5 µM (inactive)

Cc1ccc([S+]([O-])C[C@](NC(=O)OCc2ccccc2)(Sc2ccccc2)C(F)F)cc1 (some centres not stated)
GI50 (BT-549): 16.3 µM (inactive) | GI50 (Hs-578T): 23.9 µM (inactive) | GI50 (T47D): 10.5 µM (inactive)

CCCCCCc1ccc(C(=O)NO)cc1
GI50 (BT-549): 28.6 µM (inactive) | GI50 (Hs-578T): > 100 µM (inactive) | GI50 (MDA-N): 45.6 µM (inactive) | GI50 (T47D): 19.5 µM (inactive)

N#Cc1nc(Cc2cccs2)oc1N
GI50 (Hs-578T): > 100 µM (inactive) | GI50 (MDA-N): > 100 µM (inactive)

C/C(=N\Nc1nc2ccccc2n1C)c1ccncn1
GI50 (BT-549): 5.6 µM (inactive) | GI50 (Hs-578T): 3.1 µM (inactive) | GI50 (MDA-N): 0.929 µM (active) | GI50 (T47D): < 0.0501 µM (active)

O=C1OI(C#Cc2ccccc2)c2ccccc21
GI50 (BT-549): 2.88 µM (inactive) | GI50 (Hs-578T): 4.16 µM (inactive) | GI50 (MDA-N): 4.16 µM (inactive) | GI50 (T47D): 3.16 µM (inactive)

N#CC(C(=O)CCC(=O)Nc1ccc(Cl)c(Cl)c1)c1ccccc1 (configuration not stated)
GI50 (DMS-273): > 100 µM (inactive) | GI50 (KM-20L2): > 100 µM (inactive) | GI50 (M19-MEL): > 100 µM (inactive)

O=C1CC23CCCCCCCCCCC2(C1)CC(=O)C3 (configuration not stated)
GI50 (DMS-273): 23.1 µM (inactive) | GI50 (LXFL 529): 23.6 µM (inactive) | GI50 (M19-MEL): 20.7 µM (inactive)

CC(C)(C)c1c(C(C)(C)C)c(=O)c1=O
GI50 (BT-549): > 100 µM (inactive) | GI50 (Hs-578T): > 100 µM (inactive) | GI50 (MDA-N): > 100 µM (inactive)

COC(=O)C1[C@H](C(=O)OC)C1(Br)CBr (some centres not stated)
GI50 (BT-549): > 100 µM (inactive) | GI50 (Hs-578T): > 100 µM (inactive) | GI50 (MDA-N): > 100 µM (inactive) | GI50 (T47D): > 100 µM (inactive)

CC(=O)NCCc1c[nH]c2ccc(Cl)cc12
GI50 (BT-549): 25 µM (inactive) | GI50 (Hs-578T): > 100 µM (inactive) | GI50 (MDA-N): > 100 µM (inactive) | GI50 (T47D): > 100 µM (inactive)

Nc1ncnc2c1nc(-c1ccccc1)n2C1OC(CO)C(O)C1O (configuration not stated)
GI50 (BT-549): > 100 µM (inactive) | GI50 (Hs-578T): > 100 µM (inactive) | GI50 (MDA-N): > 100 µM (inactive) | GI50 (T47D): > 100 µM (inactive)

COC(=O)CCC(NC(=O)OC(C)(C)C)C(=O)NC(Cc1ccc([N+](=O)[O-])cc1)C(=O)NC(CCC(=O)OC)C(=O)OC (configuration not stated) (Boc-Glu(OMe)-[Phe(4-NO2)]-Glu(OMe)-OMe; configuration not given here)
GI50 (Hs-578T): > 100 µM (inactive) | GI50 (MDA-N): > 100 µM (inactive) | GI50 (T47D): > 100 µM (inactive)
